Measured values as given in US7932283B2, “Fungicide N-cyclopropyl-sulfonylamide derivatives” (Bayer Cropscience AG, priority 2006, dated 2011).

Experiment: logP by HPLC on reversed-phase column (C 18), EEC Directive 79/B31 Annex V.A8, methods A and B
Format: physicochemical
Details: linear gradient 10% to 90% acetonitrile; for chromatographic logP: reversed-phase HPLC column (C 18)
Description: Calibration was carried out using unbranched alkan-2-ones (having 3 to 16 carbon atoms) with known logP values (determination of the logP values by the retention times using linear interpolation between two successive alkanones).

[1] = HPLC reversed-phase C 18, method B: 40° C., 0.1% aqueous formic acid and acetonitrile
[2] = LogP method A: HPLC reversed-phase C 18, 43° C., 0.1% aqueous phosphoric acid / acetonitrile
[3] = LogP method B: HPLC reversed-phase C 18, 40° C., 0.1% aqueous formic acid / acetonitrile

SMILES: CCCOc1nn(C)cc1C(=O)N(C1CC1)S(=O)(=O)c1ccc(Oc2ccc(C)nc2)cc1Br [Compound 285]
- chromatographic logP [1]: 2.7

SMILES: CCCOc1nn(C)cc1C(=O)N(C1CC1)S(=O)(=O)c1ccc(Oc2ccc(-n3cncn3)cc2)cc1Br [Compound 286]
- chromatographic logP [1]: 3

SMILES: CCCOc1nn(C)cc1C(=O)N(C1CC1)S(=O)(=O)c1ccc(Oc2ccc3ccc(=O)oc3c2)cc1Br [Compound 287]
- chromatographic logP [1]: 3.4

SMILES: CCCOc1nn(C)cc1C(=O)N(C1CC1)S(=O)(=O)c1ccc(Oc2ccc(OC)c(OC)c2)cc1Br [Compound 288]
- chromatographic logP [1]: 3.6

SMILES: CCCOc1nn(C)cc1C(=O)N(C1CC1)S(=O)(=O)c1ccc(Oc2ccc(OC)cc2)cc1Br [Compound 289]
- chromatographic logP [1]: 4

SMILES: CCCOc1nn(C)cc1C(=O)N(C1CC1)S(=O)(=O)c1ccc(Oc2ccccc2)cc1Br [Compound 290]
- chromatographic logP [1]: 4.1

SMILES: CCCOc1nn(C)cc1C(=O)N(C1CC1)S(=O)(=O)c1ccc(Oc2ccccc2O)cc1Br [Compound 291]
- chromatographic logP [1]: 4.2

SMILES: CCCOc1nn(C)cc1C(=O)N(C1CC1)S(=O)(=O)c1ccc(Oc2cccc(N(C)C)c2)cc1Br [Compound 292]
- chromatographic logP [1]: 4.4

SMILES: CCCOc1nn(C)cc1C(=O)N(C1CC1)S(=O)(=O)c1ccc(Oc2ccc(C)cc2)cc1Br [Compound 293]
- chromatographic logP [1]: 4.5

SMILES: CCCOc1nn(C)cc1C(=O)N(C1CC1)S(=O)(=O)c1ccc(Oc2ccc(F)c(O)c2)cc1Br [Compound 294]
- chromatographic logP [1]: 4.5

SMILES: CCCOc1nn(C)cc1C(=O)N(C1CC1)S(=O)(=O)c1ccc(Oc2ccc(O)cc2)cc1Br [Compound 295]
- chromatographic logP [1]: 4.5

SMILES: CCCOc1nn(C)cc1C(=O)N(C1CC1)S(=O)(=O)c1ccc(Oc2cccc(O)c2)cc1Br [Compound 296]
- chromatographic logP [1]: 4.5

SMILES: CCCOc1nn(C)cc1C(=O)N(C1CC1)S(=O)(=O)c1ccc(Oc2cccc(C(F)(F)F)c2)cc1Br [Compound 297]
- chromatographic logP [1]: 4.5

SMILES: CCCOc1nn(C)cc1C(=O)N(C1CC1)S(=O)(=O)c1ccc(Oc2ccc(C(F)(F)F)cc2)cc1Br [Compound 298]
- chromatographic logP [1]: 4.6

SMILES: CCCOc1nn(C)cc1C(=O)N(C1CC1)S(=O)(=O)c1ccc(Oc2cccc(Br)c2)cc1Br [Compound 299]
- chromatographic logP [1]: 4.6

SMILES: CCCOc1nn(C)cc1C(=O)N(C1CC1)S(=O)(=O)c1ccc(Oc2ccc(Br)cc2)cc1Br [Compound 300]
- chromatographic logP [1]: 4.6

SMILES: CCCOc1nn(C)cc1C(=O)N(C1CC1)S(=O)(=O)c1ccc(Oc2ccc(O)cc2Cl)cc1Br [Compound 301]
- chromatographic logP [1]: 4.9

SMILES: CCCOc1nn(C)cc1C(=O)N(C1CC1)S(=O)(=O)c1ccc(Oc2ccc(O)c(C(F)(F)F)c2)cc1Br [Compound 302]
- chromatographic logP [1]: 4.9

SMILES: CCCOc1nn(C)cc1C(=O)N(C1CC1)S(=O)(=O)c1ccc(Oc2ccc(Cl)c(Cl)c2)cc1Br [Compound 303]
- chromatographic logP [1]: 4.9

SMILES: CCCOc1nn(C)cc1C(=O)N(C1CC1)S(=O)(=O)c1ccc(Oc2ccc(F)c(O)c2)cc1Br [Compound 304]
- LogP [1]: 5.0

SMILES: CCCOc1nn(C)cc1C(=O)N(C1CC1)S(=O)(=O)c1ccc(Oc2cc(O)cc(O)c2)cc1Br [Compound 305]
- chromatographic logP [1]: 5.1

SMILES: CCCCc1ccc(S(=O)(=O)N(C(=O)c2c(C(F)(F)F)nn(C)c2F)C2CC2)cc1 [Compound 359]
- chromatographic logP [1]: 4.3

SMILES: Cn1nc(C(F)(F)F)c(C(=O)N(C2CC2)S(=O)(=O)c2c(O)cccc2O)c1F [Compound 360]
- chromatographic logP [1]: 3.1

SMILES: Cn1nc(C(F)(F)F)c(C(=O)N(C2CC2)S(=O)(=O)c2cc(O)c(O)cc2O)c1F [Compound 361]
- chromatographic logP [1]: 4

SMILES: Cn1nc(C(F)(F)F)c(C(=O)N(C2CC2)S(=O)(=O)c2ccc(F)cc2O)c1F [Compound 362]
- chromatographic logP [1]: 3.1

SMILES: Cn1nc(C(F)(F)F)c(C(=O)N(C2CC2)S(=O)(=O)c2c(O)cc(O)cc2O)c1F [Compound 363]
- chromatographic logP [1]: 3.7

SMILES: Cn1nc(C(F)(F)F)c(C(=O)N(C2CC2)S(=O)(=O)c2ccccc2C(F)(F)F)c1F [Compound 364]
- chromatographic logP [1]: 3.1

SMILES: Cn1nc(C(F)(F)F)c(C(=O)N(C2CC2)S(=O)(=O)c2ccccc2OC(F)(F)F)c1F [Compound 365]
- chromatographic logP [1]: 3.2

SMILES: Cc1cc(O)cc(O)c1S(=O)(=O)N(C(=O)c1c(C(F)(F)F)nn(C)c1F)C1CC1 [Compound 367]
- chromatographic logP [1]: 2.6

SMILES: Cn1nc(C(F)(F)F)c(C(=O)N(C2CC2)S(=O)(=O)c2ccc(F)cc2Br)c1F [Compound 368]
- chromatographic logP [1]: 3.2

SMILES: Cn1nc(C(F)(F)F)c(C(=O)N(C2CC2)S(=O)(=O)c2ccccc2I)c1F [Compound 369]
- chromatographic logP [1]: 3

SMILES: Cn1nc(C(F)(F)F)c(C(=O)N(C2CC2)S(=O)(=O)c2ccc(Oc3ccccc3)cc2)c1F [Compound 370]
- chromatographic logP [1]: 3.9

SMILES: Cn1nc(C(F)(F)F)c(C(=O)N(C2CC2)S(=O)(=O)c2ccc(Oc3cccc(C#N)c3Cl)cc2)c1F [Compound 371]
- chromatographic logP [1]: 3.7

SMILES: Cn1nc(C(F)(F)F)c(C(=O)N(C2CC2)S(=O)(=O)c2ccc(Oc3ncc(C(F)(F)F)cc3O)cc2)c1F [Compound 372]
- chromatographic logP [1]: 4.2

SMILES: Cn1nc(C(F)(F)F)c(C(=O)N(C2CC2)S(=O)(=O)c2c(O)cc(C(F)(F)F)cc2O)c1F [Compound 373]
- chromatographic logP [1]: 3.9

SMILES: CCc1nn(C)c(F)c1C(=O)N(C1CC1)S(=O)(=O)c1cc(O)cc(O)c1 [Compound 376]
- chromatographic logP [1]: 3.9

SMILES: CCc1nn(C)c(F)c1C(=O)N(C1CC1)S(=O)(=O)c1ccc(O)c(O)c1 [Compound 378]
- chromatographic logP [1]: 3.8

SMILES: CCc1nn(C)c(F)c1C(=O)N(C1CC1)S(=O)(=O)c1c(O)cc(O)cc1O [Compound 379]
- chromatographic logP [1]: 3.6

SMILES: CCc1nn(C)c(F)c1C(=O)N(C1CC1)S(=O)(=O)c1c(C)nn(C)c1O [Compound 382]
- chromatographic logP [1]: 2.3

SMILES: CCCCc1ccc(S(=O)(=O)N(C(=O)c2c(CC)nn(C)c2F)C2CC2)cc1 [Compound 383]
- chromatographic logP [1]: 4.2

SMILES: CCc1nn(C)c(F)c1C(=O)N(C1CC1)S(=O)(=O)c1cc(C(F)(F)F)ccc1O [Compound 384]
- chromatographic logP [1]: 3.5

SMILES: CCc1nn(C)c(F)c1C(=O)N(C1CC1)S(=O)(=O)c1ccc(Br)cc1O [Compound 385]
- chromatographic logP [1]: 3.4

SMILES: CCc1nn(C)c(F)c1C(=O)N(C1CC1)S(=O)(=O)c1ccc(OC)c(OC)c1 [Compound 386]
- chromatographic logP [1]: 2.5

SMILES: CCc1nn(C)c(F)c1C(=O)N(C1CC1)S(=O)(=O)c1ccc(Oc2cccc(C(F)(F)F)c2)cc1 [Compound 388]
- chromatographic logP [1]: 4.2

SMILES: CCc1nn(C)c(F)c1C(=O)N(C1CC1)S(=O)(=O)c1ccc(Oc2ccc(C(F)(F)F)cc2)cc1 [Compound 389]
- chromatographic logP [1]: 4.3

SMILES: CCc1nn(C)c(F)c1C(=O)N(C1CC1)S(=O)(=O)c1ccc(Oc2ccc(Br)cc2)cc1 [Compound 390]
- chromatographic logP [1]: 4.4

SMILES: CCc1nn(C)c(F)c1C(=O)N(C1CC1)S(=O)(=O)c1ccc(Oc2ccc(O)cc2)cc1 [Compound 391]
- chromatographic logP [1]: 4.2

SMILES: COc1ccc(S(=O)(=O)N(C(=O)c2cn(C)nc2OC)C2CC2)cc1OC [Compound 395]
- chromatographic logP [1]: 1.9

SMILES: Cc1nn(C)c(Oc2cccc(O)c2)c1C(=O)N(C1CC1)S(=O)(=O)c1cccc(O)c1 [Compound 399]
- chromatographic logP [2]: 3.94

SMILES: Cc1nn(C)c(Oc2cccc(Cl)c2)c1C(=O)N(C1CC1)S(=O)(=O)c1ccc(C(F)(F)F)cc1 [Compound 400]
- chromatographic logP [2]: 4.13

SMILES: Cc1n[nH]c(C)c1C(=O)N(C1CC1)S(=O)(=O)c1cccc(Cl)c1 [Compound 401]
- chromatographic logP [2]: 2.45

SMILES: Cc1n[nH]c(C)c1C(=O)N(C1CC1)S(=O)(=O)c1ccc(C(F)(F)F)cc1 [Compound 402]
- chromatographic logP [2]: 2.5

SMILES: Cc1nn(C)c(C)c1C(=O)N(C1CC1)S(=O)(=O)c1ccc(C(F)(F)F)cc1 [Compound 403]
- chromatographic logP [2]: 3

SMILES: Cc1nn(C)c(Oc2cccc(Cl)c2)c1C(=O)N(C1CC1)S(=O)(=O)c1ccc(O)c(C(F)(F)F)c1 [Compound 404]
- chromatographic logP [2]: 4.56

SMILES: Cc1nn(C)c(Oc2cccc(O)c2)c1C(=O)N(C1CC1)S(=O)(=O)c1ccc(O)c(O)c1 [Compound 405]
- chromatographic logP [2]: 4.46

SMILES: Cc1nn(C)c(O)c1C(=O)N(C1CC1)S(=O)(=O)c1ccc(O)c(C(F)(F)F)c1 [Compound 406]
- chromatographic logP [2]: 3.76

SMILES: Cc1nn(C)c(O)c1C(=O)N(C1CC1)S(=O)(=O)c1ccc(O)c(O)c1 [Compound 407]
- chromatographic logP [2]: 3.63

SMILES: Cc1n[nH]c(C)c1C(=O)N(C1CC1)S(=O)(=O)c1ccc(O)c(C(F)(F)F)c1 [Compound 408]
- chromatographic logP [2]: 3

SMILES: Cc1n[nH]c(C)c1C(=O)N(C1CC1)S(=O)(=O)c1ccc(O)c(O)c1 [Compound 409]
- chromatographic logP [2]: 2.74

SMILES: Cc1n[nH]c(C)c1C(=O)N(C1CC1)S(=O)(=O)c1ccc(C(C)(C)C)cc1 [Compound 410]
- chromatographic logP [2]: 3.04

SMILES: Cc1nn(C)c(C)c1C(=O)N(C1CC1)S(=O)(=O)c1ccc(O)c(C(F)(F)F)c1 [Compound 411]
- chromatographic logP [2]: 3.37

SMILES: Cc1nn(C)c(C)c1C(=O)N(C1CC1)S(=O)(=O)c1ccc(O)c(O)c1 [Compound 412]
- chromatographic logP [2]: 3.21

SMILES: Cc1nn(C)c(C)c1C(=O)N(C1CC1)S(=O)(=O)c1ccc(O)cc1O [Compound 413]
- chromatographic logP [2]: 2.8

SMILES: Cc1nn(C)c(C)c1C(=O)N(C1CC1)S(=O)(=O)c1ccc(C(C)(C)C)cc1 [Compound 414]
- chromatographic logP [2]: 3.41

SMILES: COC(=O)c1csc(C)c1S(=O)(=O)N(C(=O)c1c(C)nn(C)c1F)C1CC1 [Compound 434]
- chromatographic logP [2]: 2.24

SMILES: CCc1nn(C)c(F)c1C(=O)N(C1CC1)S(=O)(=O)c1c(O)sc(O)c1O [Compound 437]
- chromatographic logP [3]: 3.85

SMILES: COc1nn(C)cc1C(=O)N(C1CC1)S(=O)(=O)c1csc(O)c1O [Compound 440]
- chromatographic logP [3]: 3.1

SMILES: Cc1nn(C)c(O)c1S(=O)(=O)N(C(=O)c1c(C(F)(F)F)nn(C)c1F)C1CC1 [Compound 443]
- chromatographic logP [3]: 2.6

SMILES: COc1nn(C)cc1C(=O)N(C1CC1)S(=O)(=O)c1cnn(C)c1O [Compound 444]
- chromatographic logP [3]: 1.7
